Values after ≈ are worked out from the molar mass of the structure shown. Counter-ions that a name gives are not always drawn. Like-named read-outs stand apart in the source and are kept apart here.
Legend:
[1] = cited from earlier work
[2] = hydrophobic acid; cited from earlier work
[3] = Stability of dasatinib in release buffer at 37° C.
[4] = Solubility of dasatinib in solvents, quantified using HPLC; assay type: physicochemical; details: for solubility: organic solvent or mixture, read-out: Dasatinib solubility (mg/mL, by HPLC)
Source text: The solubility of dasatinib in benzyl alcohol, ethyl acetate, and mixtures of oleic acid and benzyl alcohol were quantified using HPLC.

[5] = protonatable nitrogen-containing therapeutic agent

Row | Structure (SMILES) | pKa ([1]; hydrophobic acid) | log P [2] | also measured
1 | O=C(O)c1ccc2ccccc2c1O [1-hydroxy-2-naphthoic acid] | 2-3 | 2.97 | –
2 | C=C1CC[C@@H](OS(=O)(=O)O)C/C1=C/C=C1\CCC[C@]2(C)[C@@H]([C@H](C)CCCC(C)C)CC[C@@H]12 [Vitamin D3-sulfate] | −1.5 | – | –
3 | CC(C)CCC[C@@H](C)[C@H]1CC[C@H]2[C@@H]3CC=C4C[C@@H](OS(=O)(=O)O)CC[C@]4(C)[C@H]3CC[C@]12C [cholesteryl sulfate] | −1.4 | – | –
4 | Cc1nc(Nc2ncc(C(=O)Nc3c(C)cccc3Cl)s2)cc(N2CCN(CCO)CC2)n1 [dasatinib] | – | – | stability in release buffer [3]: degraded after 24 hours; solubility ([4]; 3% oleic acid in benzyl alcohol, 3% Oleic Acid in BA): 16.8 mg/mL (≈ 34.5 mM); solubility ([4]; 6% oleic acid in benzyl alcohol, 6% Oleic Acid in BA): 25.2 mg/mL (≈ 51.6 mM); solubility ([4]; 9% oleic acid in benzyl alcohol, 9% Oleic Acid in BA): 29.8 mg/mL (≈ 61.1 mM); improvement of solubility of dasatinib ([4]; benzyl alcohol doped with oleic acid vs benzyl alcohol): 2-3 fold; solubility ([4]; solvent BA (benzyl alcohol)): 9.45 mg/mL (≈ 19.4 mM); solubility ([4]; solvent EA (ethyl acetate)): 0.32 mg/mL (≈ 0.656 mM); pKa [1, 5]: 7.07
5 | C[C@H](CCC(=O)O)[C@H]1CC[C@H]2[C@@H]3CC[C@@H]4C[C@H](O)CC[C@]4(C)[C@H]3C[C@H](O)[C@]12C [deoxycholic acid] | 4.65 | 3.79 | –
6 | CCCCCCCC/C=C\CCCCCCCC(=O)OC[C@H](COP(=O)(O)O)OC(=O)CCCCCCC/C=C\CCCCCCCC [dioleoyl phosphatidic acid] | ~2 | – | –
7 | CCCCCCCCCCCCc1ccc(S(=O)(=O)O)cc1 [dodecylbenzenesulfonic acid] | −1.8 | 6.6 | –
8 | CCCCCCCCCCCCOS(=O)(=O)O [dodecylsulfuric acid] | −0.09 | 4.5 | –
9 | Cc1ccc(NC(=O)c2ccc(CN3CCN(C)CC3)cc2)cc1Nc1nccc(-c2cccnc2)n1 [imatinib, reference compound] | – | – | pKa [1, 5]: 8.38
10 | O=S(=O)(O)c1cccc2c(S(=O)(=O)O)cccc12 [naphthalene-1,5-disulfonic acid] | −2 | 1.3 | –
11 | O=S(=O)(O)c1ccc2ccccc2c1 [naphthalene-2-sulfonic acid] | −1.8 | 2.1 | –
12 | CCCCCCCC/C=C\CCCCCCCC(=O)O [oleic acid] | 4-5 | 6.78 | –
13 | O=C(O)c1cc2ccccc2c(Cc2c(O)c(C(=O)O)cc3ccccc23)c1O [pamoic acid] | 2.4 | – | –
14 | CCN(CC)CCNC(=O)c1c(C)[nH]c(/C=C2\C(=O)Nc3ccc(F)cc32)c1C [sunitinib, reference compound] | – | – | pKa [1, 5]: 7.07
15 | CC[C@]1(O)C[C@H]2CN(CCc3c([nH]c4ccccc34)[C@@](C(=O)OC)(c3cc4c(cc3OC)N(C=O)[C@H]3[C@@](O)(C(=O)OC)[C@H](OC(C)=O)[C@]5(CC)C=CCN6CC[C@]43[C@@H]65)C2)C1 [vincristine, reference compound] | – | – | pKa [1, 5]: 7.08

Source: US20140248358A1, “Therapeutic Nanoparticles Comprising a Therapeutic Agent and Methods of Making and Using Same” (BIND Therapeutics, Inc., priority 2012, published 2014)
